Results on three compounds are retold here after article PMC9313812, “The Pseudo‐Natural Product Rhonin Targets RHOGDI” (Angewandte Chemie (International Ed. in English), 2022).

The Kd is a measure of binding affinity in units of concentration.

In assay [1] the test system is C3H10T1/2 cells. Kind of assay: Osteoblast differentiation in presence of low or high SAG. It is filed as cell-based, mouse. Particulars: low and high concentration of SMO agonist SAG. On the procedure: cilia were stained with an antibody against acetylated tubulin. SMO was marked with an anti-SMO antibody and DAPI was used to stain the nuclei. For quantification of cilia, at least 100 cilia per condition and biological replicate were analyzed for the intensity of anti-acetylated tubulin antibody staining. The results of one representative biological replicate are shown and each data point represents the intensity value of one single cilium. Statistical significance was evaluated using an unpaired t-test with a confidence interval of 95 % (p ≤ n.s.). (d and e) Influence Vismodegib (d) or GANT61 (e) on osteoblast diffe rentation of C3H10T1/2 cells in presence of low (0.1 µM) or high (1 µM) concentration of the SMO agonist SAG. Data are mean values of three independent biological replicates (n= 3) ± SD. (f) Fluorescent polarization measurements were performed by titrating 1 μM TAMRA-GDP-bound RAC1 with increasing […]
µM Rhonin. Data are mean values (n = 3) ± SD. (g) Structure of the lysine-reactive probe […]
(§1) (1 picture or pasted object on this page, not shown here)

Assay [2] has as its system NIH/3T3 lysate proteins. Kind of assay: Affinity chromatography (pulldown) with immobilized probes, HRMS label-free quantification and immunoblotting. The format is binding. On the procedure:
(§2) Supplementary Table S8. List of proteins enriched by the active probe 8 as identified by means of affinity chromatography. […]
(§3) on NHS ester magnetic beads. NIH/3T3 lysate was passed on to the probes and target protein identification was performed employing HRMS analysis as described in the methods section.
(§4) The ratios indicate the fold excess of protein enriched with the active probe 8 as compared to […]
(§5) Apart from filamin –B and –C and RHOGDI1, all enriched proteins were known frequent binders in pulldown assays.
(§6) Protein name Gene symbol Ratio
(§7) RHO GDP-dissociation inhibitor 1 Arhgdia 33
(§8) Guanine nucleotide -binding protein subunit beta -2-like
(§9) 1;Guanine nucleotide -binding protein subunit beta -2-like 1, N- Gnb2l1 6 […]
(§10) ATPase inhibitor, mitochondrial Atpif1 4
(§11) Hsc70-interacting protein St13 4
(§12) Tropomyosin alpha -4 chain Tpm4 4
(§13) Ribosome-recycling factor, mitochondrial Mrrf 3
(§14) (1 picture or pasted object on this page, not shown here) […]
(§15) intensities was performed by densitometry of scanned signals with the aid of image studio software (Version 4.0.21, LI-COR Biosciences, ©2014). […]
(§16) Cell lysate preparation for chemical proteomics
(§17) NIH/3T3 cells were grown to 90-95% confluence and were then detached using cell dissociation solution for 5 min at 37 °C and 5% CO2. Cells were suspended in cell culture medium and pelleted by centrifugation at 250 x g, 5 min at 4 °C. Cell pellets were then washed thrice with ice-cold PBS and lysed in lysis buffer containing 50 mM PIPES, 50 mM NaCl, 5 mM MgCl2, 5 mM EGTA, 0.1 % NP40, 0.1 % Triton X-100, 0.1 % Tween®20, with freshly added 1 mM DTT, EDTA-free protease inhibitors (Complete EDTA-free, Roche) and phosphatase inhibitors (PhosphoSTOP, Roche). To assure complete cell lysis, the suspension was passed through […] cannula 10 times each and incubated on ice for 40 min with intermittent vortexing every five minutes until a homogeneous mixture was obtained.
(§18) The resulting homogenate was centrifuged at 18,000 x g for 30 min at 4 °C and the supernatant was subsequently snap frozen in liquid nitrogen and stored at -80 °C. Total protein content was determined by DC protein assay (Bio-Rad, Germany).
(§19) Affinity chromatography enrichment of compound-bound proteins
(§20) 25 µL N-hydroxysuccinimide magnetic beads (GE Healthcare) were activated with 500 µL 1 mM HCl for 1 min. HCl was replaced by 500 µL coupling buffer (0.15 M triethanolamine, […]
(§21) incubated for 2 h at room temperature with overhead rotation. The residual active groups of N-hydroxysuccinimide magnetic were quenched by alternating incubation with 500 µL block A buffer (0.5 M ethanolamine, 0.5 M NaCl, pH 8.3) and block B buffer (0.1 M sodium acetate, 0.5 M NaCl, pH 4.0) for 5 min three times each. For protein binding, the magnetic beads were equilibrated with 500 µL lysis buffer followed by incubation with 500 µL lysate (protein concentration: 2 mg/mL) 2 h at 4 °C with overhead rotation. In order to wash out non-specifically bound proteins, the beads were first washed with 500 µL lysis buffer containing 25 mM MgCl2 followed by three times washing with 500 µL PBS. Tryptic digestion of bead-bound proteins was carried out in two stages. First, bound proteins were reduced by incubating the beads with 50 µL reducing buffer (1 mM DTT, 8 M urea in 50 mM Tris (pH 7.5)) at 30 °C for 30 min with shaking. Later, the reduced proteins were alkylated by addition of 5.5 µL alkylating solution (1 mM DTT, 50 mM chloroacetamide, 8 M urea in 50 mM Tris pH 7.5) and further incubation in the dark at 30 °C for 30 min while shaking at 350 rpm. The reduced and alkylated proteins were digested by adding 1 µg LysC at 37 °C for 1 h while shaking at 350 rpm. The supernatant was transferred to a new tube and the beads were further incubated with 50 mM Tris-HCl (pH 7.5) containing 1 µg trypsin at 37 °C for 1 h while shaking at 350 rpm.
(§22) Both supernatants were combined together and further digested by adding 2 µg trypsin for 16 h at 37 °C with continuous shaking. The enzymatic digestion was stopped by addition of 2 µL […]

Assay [3] addresses T1, NIH/3T3 lysate proteins (Mus musculus, UniProt Q99PT1).
T1 construct: endogenous in cells; host or cells: NIH/3T3
The assay is described as above. The format is binding. Particulars: fold excess enriched with active probe 8 vs inactive probe 9. The method, then: as §2, §3, §4, §5, §6, §7, §8, §9, §10, §11, §12, §13, §14, §15, §16, §17, §18, §19, §20, §21, §22

Assay [4] addresses T2, PDEδ (Homo sapiens, UniProt O43924).
T2 construct: GST (N); made in house; host or cells: E. coli Rosetta 2
Nature of the assay: Fluorescence polarization, direct binding of probe 10. The following applies: 10 nM probe 10, titration of PDEδ. The method, then:
RHOGDI1 displaced liposome -bound RAC1 from the surface of L1 chip with a koff of 0.016 […]
bound RAC1. Calculated rate constants by mono-exponential fitting of RU decays were 0.02 and 0.032 s-1 for RHOGDI1-mediated RAC1 displacement from the liposomes in the presence of 7a and 7d, respectively. (d) Competition-based fluorescence polarization experiments were performed by titration of 7a against 10 nM fluorescein-labelled atorvastatin and GST-PDEδ.
(e) Fluorescence polarization experiment using 10 nM probe 10 and titration of PDEδ.
as §1
Label-free quantification (LFQ) intensities were logarithmized (log2) and proteins, which were not three times quantified in at least one of the groups, were filtered off. […]
(§23) Fluorescence polarization
The binding of probe 10 to RHOGDI1-3 was confirmed by fluorescence polarization experiments. […] The change in fluorescence polarization was monitored at an excitation / emission wavelengths of 535 nm and 593 nm, respectively. […]
To determine the effect of 7a on the binding of RHOGDI1 to non-prenylated RAC1-GDP, fluorescence polarization measurements were performed by titrating 1 µM TAMRA-GDP-bound RAC1 with increasing concentrations of RHOGDI1 in the presence and absence of 50 µM 7a in buffer containing 30 mM Tris-HCl, pH 7.5, 150 mM NaCl, 5 mM MgCl2, 1% DMSO. […]
(In general: In fluorescence polarisation assays a small probe gives low polarisation when free and higher when bound to something large.)

For assay [5], the target named is T3, RHOGDI1 (Homo sapiens, UniProt P52565).
T3 construct: GST; made in house; host or cells: E. coli (XL1-Blue / BL21)
Kind of assay: Fluorescence polarization binding of probe 10. Particulars: fluorescence polarization; read-out: KD (RHOGDI1Δ25). On the procedure: as §23
(§24) The binding of probe 10 to RHOGDI1-3 was confirmed by fluorescence polarization experiments. RHOGDI1 was titrated against 0.5 µM of the fluorescent Rhonin derivative 10 in buffer containing 20 mM Hepes, pH 7.4, 150 mM NaCl, 5 mM MgCl2, 3 mM DTT and incubated for 1 h. The change in fluorescence polarization was monitored at an excitation / emission wavelengths of 535 nm and 593 nm, respectively. […]
(§25) Protein expression and purification
(§26) RHOGDI1 delta15, RHOGDI1 delta25, RHOGDI1-3 were produced in E. coli (XL1-Blue) as a GST recombinant protein as described previously.[9] In summary, protein were expressed in E.coli BL21 upon addition of IPTG overnight. Cell were collected and lysed in a lysis buffer, containing 30 mM Tris-NaOH pH 7.4, 150 mM NaCl, 1 mM DTT, and 5 mM MgCl2. Cells were further lysed using sonication. After centrifugation (20 min at 20,000 g) of lysate, the clear supernatant was used for purification in an ÄKTAprime system connected to a GSH column […]
(§27) Insect cell purification system was used for expression and purification of prenylated proteins based on an established protocol.[9] Sf9/or TNAO38 insect cells (Sf9 used only for virus generation and amplification) were grown to the level of 1.5×10^6 cells/ml before they were transduced with Baculoviruses encoding genes related to the RHO GTPases. Cells were resuspended in lysis buffer, containing 20 mM HEPES-NaOH pH 7.4, 150 mM NaCl, 2 mM β-mercaptoethanol, 5 mM MgCl2, 0.1 mM GDP, 10 mM imidazole and the optimized detergents including 1% CHAPS and 0.5% sodium cholate .[9] Cells were lysed by s onication in ice. After
T3 sequence (P52565 26-204): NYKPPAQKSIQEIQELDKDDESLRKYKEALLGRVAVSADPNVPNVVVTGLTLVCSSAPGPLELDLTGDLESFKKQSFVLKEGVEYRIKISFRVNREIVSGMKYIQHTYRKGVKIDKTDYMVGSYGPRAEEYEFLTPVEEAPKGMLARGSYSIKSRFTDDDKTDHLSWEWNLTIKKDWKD

Assay [6] addresses RHOGDI1 (Homo sapiens, UniProt P52565). Kind of assay: Fluorescence polarization binding of probe 10. Particulars: range from Figure 4e; read-out: KD, measured affinity between probe 10 and RHOGDI1. The method, then:
as §23, §24, §25, §26, §27
Target sequence in this assay (P52565 2-204): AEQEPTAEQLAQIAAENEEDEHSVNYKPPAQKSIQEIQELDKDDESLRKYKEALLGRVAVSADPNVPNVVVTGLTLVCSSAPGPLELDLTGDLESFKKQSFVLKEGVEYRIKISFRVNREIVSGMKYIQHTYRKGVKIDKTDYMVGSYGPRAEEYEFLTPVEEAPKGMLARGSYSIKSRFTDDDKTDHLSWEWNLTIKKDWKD

Assay [7] deals with T4, RHOGDI1 (Homo sapiens, UniProt P52565).
T4 construct: GST; made in house; host or cells: E. coli (XL1-Blue / BL21)
Nature of the assay: Fluorescence polarization binding of probe 10. Particulars: fluorescence polarization; read-out: KD (RHOGDI1Δ15). The method, then:
as §23, §24, §25, §26, §27
T4 sequence (P52565 16-204): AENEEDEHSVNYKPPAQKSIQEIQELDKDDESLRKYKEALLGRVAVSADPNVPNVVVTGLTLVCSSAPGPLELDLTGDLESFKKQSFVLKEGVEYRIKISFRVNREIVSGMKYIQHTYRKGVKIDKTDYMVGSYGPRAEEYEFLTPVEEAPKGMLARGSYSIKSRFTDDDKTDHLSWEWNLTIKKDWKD

Assay [8] has as its target T5, RHOGDI3 (Homo sapiens, UniProt Q99819).
T5 construct: GST; made in house; host or cells: E. coli (XL1-Blue / BL21)
Kind of assay: Fluorescence polarization binding of probe 10. The method, then: as §23, §24, §25, §26, §27

Assay [9] deals with T6, RHOGDI2 (Homo sapiens, UniProt P52566).
T6 construct: GST; made in house; host or cells: E. coli (XL1-Blue / BL21)
T6 sequence (P52566 whole entry, species assumed): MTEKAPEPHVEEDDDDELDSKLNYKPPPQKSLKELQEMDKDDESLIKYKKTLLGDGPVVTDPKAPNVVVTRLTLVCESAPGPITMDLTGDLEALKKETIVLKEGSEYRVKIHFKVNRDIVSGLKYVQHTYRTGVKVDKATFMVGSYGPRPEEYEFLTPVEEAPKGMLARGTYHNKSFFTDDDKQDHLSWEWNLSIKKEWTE
Nature of the assay: Fluorescence polarization binding of probe 10. On the procedure: as §23, §24, §25, §26, §27

The mark [10] stands for this setting: fold excess enriched with active probe 8 vs inactive probe 9.

Read-outs that look alike come from different tables or passages of the source.

T2 sequence (O43924 whole entry): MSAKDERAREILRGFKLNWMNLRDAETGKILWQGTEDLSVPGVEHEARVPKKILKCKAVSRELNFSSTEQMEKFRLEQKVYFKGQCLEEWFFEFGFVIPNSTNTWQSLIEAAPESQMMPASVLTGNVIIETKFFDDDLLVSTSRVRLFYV
T5 sequence (Q99819 whole entry, species assumed): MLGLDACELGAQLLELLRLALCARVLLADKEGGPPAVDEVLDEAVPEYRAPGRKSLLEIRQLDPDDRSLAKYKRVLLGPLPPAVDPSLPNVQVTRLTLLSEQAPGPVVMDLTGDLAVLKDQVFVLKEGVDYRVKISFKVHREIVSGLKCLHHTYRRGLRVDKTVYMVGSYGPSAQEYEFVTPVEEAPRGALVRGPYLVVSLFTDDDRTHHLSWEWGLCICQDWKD
T1 sequence (Q99PT1 2-204): as the sequence (P52565 2-204) above, with V70I, G73R, S80T, V161M, S175N, D200E counted along it

With `CS(=O)(=O)c1ccc(C(=O)Nc2ccc(Cl)c(-c3ccccn3)c2)c(Cl)c1` [Vismodegib], the “Potency in osteogenesis in presence of 0.1 μM vs 1 μM SAG (in words)” value in assay [1] is “decreased potency”.

Take `COC(=O)C1(C(CC(=O)c2ccccc2)c2ccc(C(=O)NCCOCCOCCN)cc2)N=C(c2ccc(Br)cc2)C2C(=O)N(C)C(=O)C21` (centres unmarked) [compound 8]: in [2] (setting [10]), the “Ratio, 60S ribosomal protein L32 (Rpl32)” value amounted to 9; the “Ratio, ATPase inhibitor, mitochondrial (Atpif1)” value is given as 4; the “Ratio, Filamin-B (Flnb)” value is on record as 36; the “Ratio, Filamin-C (Flnc)” value is 27. For the same compound, in assay [2] (setting [10]), the “Ratio, Guanine nucleotide-binding protein subunit beta-2-like 1 (Gnb2l1)” value was 6; the “Ratio, Hsc70-interacting protein (St13)” value amounted to 4; the “Ratio, Ribosome-recycling factor, mitochondrial (Mrrf)” value is 3; the “Ratio, Tropomyosin alpha-4 chain (Tpm4)” value is on record as 4. The “Enrichment of proteins by probe, immunoblotting after pulldown (in words)” value in assay [2] (probe 8 compared with control probe 9, NIH/3T3 lysates) is “selective enrichment of RHOGDI1”. Also, the “Ratio, RHO GDP-dissociation inhibitor 1 (Arhgdia)” value in assay [3] amounted to 33.

Take `COC(=O)C1(C(CC(=O)c2ccccc2)c2ccc(C(=O)NCCOCCOCCNC(=O)CCc3ccc4n3[B-](F)(F)[N+]3=C(c5ccc[nH]5)C=CC3=C4)cc2)N=C(c2ccc(Br)cc2)C2C(=O)N(C)C(=O)C21` (centres unmarked) [compound 10]: in [4], the “Binding of probe to PDEδ (in words)” value is recorded as “binds to PDEδ only at higher concentrations”. The Kd is 3.09 µM in [5]; 3.1 to 8.5 µM in assay [6]; 8.51 µM in assay [7]; 11.5 µM in [8]; 9.08 µM in [9].
